Results on 17 compounds are retold here after US8637496B2, “Compounds having a monogalactosyldiacylglycerol synthase inhibitory activity as herbicide or algaecide, herbicide and algaecide compositions” (Commissariat a l'Energie Atomique, priority 2007, dated 2014).

Assay [1] addresses T1, spinach recombinant MGDG synthase (soMGD) (Spinacia oleracea, UniProt Q9SM44).
T1 construct: The cDNA fragments corresponding to the mature form of spinach MGDG synthase, soMGD1; made in house; host or cells: Escherichia coli BL21-DE3, pET-3a (NdeI-BamHI)
T1 sequence (Q9SM44 99-522): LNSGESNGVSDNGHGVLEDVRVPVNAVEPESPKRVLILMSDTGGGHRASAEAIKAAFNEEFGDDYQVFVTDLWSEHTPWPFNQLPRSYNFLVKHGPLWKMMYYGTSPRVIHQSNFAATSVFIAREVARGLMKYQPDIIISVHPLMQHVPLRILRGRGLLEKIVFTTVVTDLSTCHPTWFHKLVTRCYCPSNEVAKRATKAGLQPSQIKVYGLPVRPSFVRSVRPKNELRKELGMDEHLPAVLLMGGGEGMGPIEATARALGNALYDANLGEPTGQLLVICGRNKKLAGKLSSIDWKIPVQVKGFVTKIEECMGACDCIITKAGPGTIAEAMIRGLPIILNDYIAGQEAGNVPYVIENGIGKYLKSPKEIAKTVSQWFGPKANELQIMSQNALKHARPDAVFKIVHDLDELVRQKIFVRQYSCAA
The assay is described as follows: MGDG synthase enzymatic assay of recombinant spinach MGD protein in mixed micelles. It counts as biochemical. The settings on record: recombinant enzyme expressed in E. coli, FIG. 2, read-out: IC50, inhibition of spinach recombinant MGDG synthase (soMGD) activity. The text has this:
The cDNA fragments corresponding to the mature form of spinach MGDG synthase, soMGD1 [accession number CAB56218], and from the three isoforms that are present in Arabidopsis, i.e. atMGD1 [accession number BAB12042], atMGD2 [accession number T52269] and atMGD3 [accession number BAB12041] were inserted into the pET-3a expression vector from Novagen, as described by Miège C. et al., Eur. J. Biochem, 1999, 265, 990-1001 and Awai K. et al., Proc. Natl. Acad. Sci. U.S.A., 2001, 98, 10960-10965. All MGD sequences used in this study were inserted in NdeI-BamHI cloning site of the pET-3a vector. Induction of recombinant proteins was achieved following the pET expression system procedure. Isolated colonies of transfected Escherichia coli (BL21-DE3) were inoculated in LB medium (2.5 ml, 100 μg/ml carbenicillin) and grown at 37° C. When OD600 reached 0.5, the cell suspension was transferred to 15 ml of LB medium ([…] carbenicillin) and grown at 37° C. until OD600 reached 0.5. […]
The MGDG synthase enzymatic assay was achieved as described by Maréchal E. et al., J. Biol. Chem., 1995, 270, 5714-5722. […] J. Biochem. Physiol., 1959, 37, 911-917 and the radioactivity of the [^14C]-labelled MGDG ultimately produced, determined by liquid scintillation counting. […]

Assay [2] deals with T2, MGDG synthase in isolated spinach chloroplast envelope membranes (Spinacia oleracea, UniProt Q9SM44).
T2 construct: envelope membranes purified from the lysate by sucrose centrifugation gradient; from tissue; host or cells: envelope membranes of chloroplasts from spinach leaves
T2 sequence (Q9SM44 99-522): T1 sequence (Q9SM44 99-522)
Kind of assay: MGDG synthase activity in envelope membrane fractions isolated from spinach chloroplasts. It counts as biochemical. An outline of the steps: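 Envelope membranes purified from Percoll-isolated spinach chloroplasts by hypotonic lysis and sucrose gradient; MGDG synthase activity measured per published protocol.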

Assay [3] relates to Chlamydomonas reinhardtii. The assay is described as follows: Chlamydomonas reinhardtii growth assay. Format: cell-based. The settings on record: day three (d=3). How it is done: An axenic suspension of Chlamydomonas reinhardtii (10 μl) is introduced in a liquid TAP medium (Tris-Acetate-Phosphate medium, as described by Rochaix et al., (The Molecular Biology of Chloroplasts and Mitochondria in Chlamydomeonas; Advances in Photosynthesis, (1998) Vol. 7. Kluwer Academic Publishers, Dordrecht, The Netherlands) with or without compound according to the invention. The compounds to be tested have been solubilized in dimethylsulfoxide (DMSO) and supplied directly in the growth medium, at concentrations ranging from 0 to 200 μM. Final concentration of DMSO in medium was 10%. Chlamydomonas suspensions were then grown at 20° C., under continuous light (50 μE.m^−2.s^−1). Growth was assessed by counting the algae in a 40 μl aliquot using a Malassez cell and examining the cell vitality by standard microscopic methods.
Control herbicide is Triclosan.

The mark [4] stands for this setting: Table 1, obtained in the same manner as FIG. 4, read-out: Inhibitory effect on MGDG synthesis in isolated spinach chloroplast envelope membranes.

Where a name gives a salt, the structure may show the parent alone. Read-outs that look alike come from different tables or passages of the source.

Take `C[C@@H](COC(=O)N1CCC(n2c(=O)[nH]c3ccccc32)CC1)N(Cc1ccccc1)Cc1ccccc1` [Compound 7, (S)-2-(dibenzylamino)propyl 4-(1,2-dihydro-2-oxobenzo[d]imidazol-3-yl)piperidine-1-carboxylate]: the IC50 in assay [1] came to 45 µM; in assay [2] (setting [4]), 45 µM; in assay [2] (spinach chloroplast envelope membranes, FIG. 4, read-out: IC50, MGDG synthase activity in envelope membranes that surround chloroplasts) it was 10 µM. `O=C(OC1CN(C(c2ccccc2)c2ccccc2)C1)N1CCC(n2c(=O)[nH]c3ccccc32)CC1` [Compound 13, 1-benzhydrylazetidin-3-yl 4-(1,2-dihydro-2-oxobenzo[d]imidazol-3-yl)piperidine-1-carboxylate]: the IC50 in assay [2] (setting [4]) lay within 100 to 500 µM. Moreover, in assay [3], the “morphology of Chlamydomonas when incubated with compound (FIG. 6)” value was “fails to divide”. For `O=C(OCCN(Cc1ccccc1)Cc1ccccc1)N1CCC(n2c(=O)[nH]c3ccccc32)CC1` [Compound 11, 2-(dibenzylamino)ethyl 4-(1,2-dihydro-2-oxobenzo[d]imidazol-3-yl)piperidine-1-carboxylate], in that order: 15 µM and “fails to divide”. Consider `O=C(OC[C@H](Cc1ccccc1)N(Cc1ccccc1)Cc1ccccc1)N1CCC(n2c(=O)[nH]c3ccccc32)CC1` [Compound 8, (S)-2-(dibenzylamino)-3-phenylpropyl 4-(1,2-dihydro-2-oxobenzo[d]imidazol-3-yl)piperidine-1-carboxylate], for which the IC50 came to 100 µM in assay [1] and 10 µM in assay [2] (setting [4]). For `O=c1[nH]c2ccccc2n1C1CCN(C(=S)OCCOCc2ccccc2)CC1` [Compound 20, O-2-(benzyloxy)ethyl 4-(1,2-dihydro-2-oxobenzo[d]imidazol-3-yl)piperidine-1-carbothioate], in assay [2] (setting [4]), the IC50 lay within 100 to 500 µM. In assay [3], the “morphology of Chlamydomonas when incubated with compound (FIG. 6)” value was “fails to divide”. As to `O=c1[nH]c2ccccc2n1C1CCN(C(=S)OCCN(Cc2ccccc2)Cc2ccccc2)CC1` [Compound 19, O-2-(dibenzylamino)ethyl 4-(1,2-dihydro-2-oxobenzo[d]imidazol-3-yl)piperidine-1-carbothioate], the IC50 in assay [2] (setting [4]) came out at 20 µM. The same measure, in the same setting: to `C[C@@H](COC(=O)N1CCC(n2c(=O)[nH]c3ccccc32)CC1)N(Cc1ccccc1)Cc1ccccn1` [Compound 64, (S)-2-(benzyl(pyridin-2-ylmethyl)amino)propyl 4-(2-oxo-2,3-dihydro-1H-benzo[d]imidazol-1-yl)piperidine-1-carboxylate hydrochloride] belongs 35 µM; to `O=C(OCCN(Cc1ccccc1)Cc1ccnc2ccccc12)N1CCC(n2c(=O)[nH]c3ccccc32)CC1` [Compound 57, 2-(benzyl(quinolin-4-ylmethyl)amino)ethyl 4-(2-oxo-2,3-dihydro-1H-benzo[d]imidazol-1-yl)piperidine-1-carboxylate hydrochloride], 75 µM; to `O=C(OCC(Cc1ccccc1)NCc1ccccc1)N1CCC(n2c(=O)[nH]c3ccccc32)CC1` (centres unmarked) [Compound 88, 2-(benzylamino)-3-phenylpropyl 4-(2-oxo-2,3-dihydro-1H-benzo[d]imidazol-1-yl)piperidine-1-carboxylate], 60 µM.

Take `COc1ccc(CN(CCOC(=O)N2CCC(n3c(=O)[nH]c4ccccc43)CC2)Cc2ccccc2)cc1` [Compound 47, 2-(benzyl(4-methoxybenzyl)amino)ethyl 4-(2-oxo-2,3-dihydro-1H-benzo[d]imidazol-1-yl)piperidine-1-carboxylate hydrochloride]: the IC50 in assay [2] (setting [4]) came out at 15 µM.

As for `O=C(OCCN(Cc1ccccc1)Cc1ccc(Cl)cc1)N1CCC(n2c(=O)[nH]c3ccccc32)CC1` [Compound 74, 2-(benzyl(4-chlorobenzyl)amino)ethyl 4-(2-oxo-2,3-dihydro-1H-benzo[d]imidazol-1-yl)piperidine-1-carboxylate], the IC50 in assay [2] (setting [4]) was 8 µM. On the same count and under the same terms, the result for `Cn1c(CN(CCCOC(=O)N2CCC(n3c(=O)[nH]c4ccccc43)CC2)Cc2ccccc2)cc2ccccc21` [Compound 72, 3-(benzyl((1-methyl-1H-indol-2-yl)methyl)amino)propyl 4-(2-oxo-2,3-dihydro-1H-benzo[d]imidazol-1-yl)piperidine-1-carboxylate hydrochloride] reads 50 µM. On the same count and under the same terms, to `O=C(OCCN(Cc1ccccc1)Cc1cccc(Cl)c1)N1CCC(n2c(=O)[nH]c3ccccc32)CC1` [Compound 50, 2-(benzyl(3-chlorobenzyl)amino)ethyl 4-(2-oxo-2,3-dihydro-1H-benzo[d]imidazol-1-yl)piperidine-1-carboxylate hydrochloride] belongs 8 µM; to `CC(C)[C@@H](COC(=O)N1CCC(n2c(=O)[nH]c3ccccc32)CC1)N(Cc1ccccc1)Cc1ccccc1` [Compound 29, (S)-2-(dibenzylamino)-3-methylbutyl 4-(1,2-dihydro-2-oxobenzo[d]imidazol-3-yl)piperidine-1-carboxylate], 8 µM. On the same count and under the same terms, the result for `C[C@@H](COC(=O)N1CCC(n2c(=O)[nH]c3ccccc32)CC1)N(Cc1ccccc1)Cc1ccc(F)cc1` [Compound 51, (S)-2-(benzyl(4-fluorobenzyl)amino)propyl 4-(2-oxo-2,3-dihydro-1H-benzo[d]imidazol-1-yl)piperidine-1-carboxylate hydrochloride] reads 40 µM; that for `C[C@@H](COC(=O)N1CCC(n2c(=O)[nH]c3ccccc32)CC1)N(Cc1ccccc1)Cc1cccc(OCc2ccccc2)c1` [Compound 60, (S)-2-(benzyl(3-(benzyloxy)benzyl)amino)propyl 4-(2-oxo-2,3-dihydro-1H-benzo[d]imidazol-1-yl)piperidine-1-carboxylate hydrochloride], 12 µM.

Take `O=C(OCCC(c1ccccc1)c1ccccc1)N1CCC(n2c(=O)[nH]c3ccccc32)CC1` [Compound 12, 3,3-diphenylpropyl 4-(1,2-dihydro-2-oxobenzo[d]imidazol-3-yl)piperidine-1-carboxylate]: in assay [2] (setting [4]), the IC50 amounted to 45 µM.
